Laboratory results published in patent US20030050242A1, “Protein polymerization inhibitors and methods of use” (priority 1999, published 2003).
Several values for one entry are separate records, joined by “and”; a condition that tells them apart may be missing. Equal values may be shown once. Peptide text beside a SMILES is read from it.

Assays:
[1] = target: major capsid protein (p24) of HIV-1 (HIV-1) (UniProt P04591)
[2] = target: major capsid protein (p24) of HIV-1 (HIV-1) (UniProt P04591); remark: listed apart in the source
[3] = target: viral capsid protein (p24) of SIV (SIV)
[4] = target: viral capsid protein (p24) of HIV-2 (HIV-2)
[5] = target: major capsid protein (p24) of HIV-1 (HIV-1) (UniProt P04591); remark: listed apart in the source
HIV-1 = conditions: summary of Experiments 1-6
Procedure: (§1) Next, the ability of peptide agents to inhibit viral infection was evaluated. Accordingly, the peptide agents listed in Table 1 were used in several viral (e.g., HIV-1, HIV-2, and SIV) infection assays. […] Once inhibitory tripeptides were identified, more specific assays were conducted to determine the effect of varying concentrations of the selected tripeptides and combination treatments (e.g., the use of more than one modified tripeptide in combination).

SIV = experiment: viral infection assay in H9 cells, reverse transcriptase (RT) activity in supernatant; type: cell-based; conditions: summary of the experiments in H9 cells
Procedure: as §1
(§2) To monitor the replication of virus, reverse transcriptase (RT) activity in the supernatants was assayed using a commercially available Lenti-RT activity kit. (Cavidi Tech, Uppsala, Sweden). The amount of RT was determined with the aid of a regression line of standards. […] Syncytium formation was also monitored by microscopic examination.
(§3) (Cavidi Tech). The amount of RT was determined with the aid of a regression line of standards.

HIV-2 = experiment: as above; type: cell-based; conditions: summary of the experiments in H9 cells
Procedure: as §1, §2, §3

[6] = target: T1, recombinant p24 (viral capsid protein) (Human immunodeficiency virus type 1 group M subtype B, UniProt P04591); experiment: dialysis-based binding assay with 14C-GPG-NH2; parameters: species or system HIV-1
T1 construct: AIDS program, NCIB (gift)
Procedure: (§4) To determine whether the peptide agents listed in Table 1 bound to the viral capsid protein p24, an in vitro binding assay was performed. As described previously, a dialysis-based binding assay was conducted using a dialysis membrane with a pore size of less than 10 kD. (Slide-A-Lyzer, Pierce). Fifty microliters of a 10 μM stock of the recombinant proteins p24, gp120 (gifts from the AIDS program, NCIB) and BSA (Sigma) were introduced into separate dialysis membranes and the proteins were dialyzed at 4° C. for 2 days against a 500 ml solution composed of 150 mM NaCl and 50 mM Tris-HCl, pH 7.4 buffer, and 27.5 μM of ^14C-GPG-NH2 (Amersham Ltd. UK). Subsequently, ten or five microliter aliquots of the dialyzed p24, gp 120, and BSA were removed and mixed with 3 ml of ReadySafe (Beckman) in a scintillation vial. The C^14 was then detected by scintillation counting.
(§5) In Table 2, the results from a representative dialysis-based binding assay are provided. […] The amount of radioactive GPG-NH2 associated with p24 was 7.5 times greater than that present in the buffer.

recombinant gp120 = target: T2, recombinant gp120 (Human immunodeficiency virus type 1 group M subtype B, UniProt P03375); experiment: dialysis-based binding assay with 14C-GPG-NH2
T2 construct: recombinant proteins p24, gp120 (gifts from the AIDS program, NCIB); AIDS program, NCIB (gift)
Procedure: To determine whether the peptide agents listed in Table 1 bound to the viral capsid protein p24, an in vitro binding assay was performed. As described previously, a dialysis-based binding assay was conducted using a dialysis membrane with a pore size of less than 10 kD. (Slide-A-Lyzer, Pierce). […] Subsequently, ten or five microliter aliquots of the dialyzed p24, gp 120, and BSA were removed and mixed with 3 ml of ReadySafe (Beckman) in a scintillation vial. The C^14 was then detected by scintillation counting.

HIV-1 SF-2 virus = experiment: electron microscopy of HIV-1 particles from infected HUT78 cells; type: cell-based; conditions: 1 μM or 10 μM added 3, 5 or 7 days post infection; cells fixed day 14
Procedure: Evidence that peptide agents inhibit or prevent viral capsid protein polymerization and, thus, proper nucleocapsid assembly was obtained by performing electron microscopy on HIV-1 particles that were contacted with a modified small peptide. In this set of experiments, HUT78 cells were infected with HIV-1 SF-2 virus at 300TCID50 for 1 hr at 37° C. Subsequently, the infected cells were washed and pelleted 3 times. […] GPG-NH2 was then added into the cell cultures 3, 5 or 7 days post infection at concentration of 1 μm or 10 μM. A control sample was administered 0.5 μM Ritonavir (a protease inhibitor). The cells were cultured until day 14, at which point, the cells were fixed in 2.5% glutaraldehyde by conventional means. The fixed cells were then post-fixed in 1% OSO4 and were dehydrated, embedded with epoxy resins, and the blocks were allowed to polymerize. Epon sections of virus infected cells were made approximately 60-80 nm thin in order to accommodate the width of the nucleocapsid. The sections were mounted to grids stained with 1.0% uranyl acetate and were analyzed in a Zeiss CEM 902 microscope at an accelerating voltage of 80 kV. The microscope was equipped with a spectrometer to improve image quality and a liquid nitrogen cooling trap was used to reduce beam damage. The grids having sections of control and GPG-NH2 incubated cells were examined in several blind studies.
(See FIG. 1). […]

BSA = target: T3, BSA (Bos taurus, UniProt P02769); experiment: dialysis-based binding assay with 14C-GPG-NH2
T3 construct: purchased Sigma
Procedure: as §4, §5

[7] = 27.5 μM 14C-GPG-NH2, dialysis 4° C. 2 days, dialysis buffer 1.816
[8] = radioactivity relative to dialysis buffer

**Q.** For “GPG-NH2 + GKG-NH2 + CQG-NH2 (pool or library)”, which p24 in the supernatants of infected H9 cells, Day 14 HIV-1, reduction (%) [1] is on record?
**A.** 100%

**Q.** Gly-Pro-Gly-NH2 (peptide) was tested. Which p24 production of infected HUT78 cells (HIV-1 p24 ELISA), Day 7 HIV-1, reduction (%), peptide at 100 µM [2] did it give?
**A.** 97%

**Q.** What about the reverse transcriptase (RT) activity in the supernatants, Day 10 RT (OD) [3] of the same compound?
**A.** 0.103 OD

**Q.** What about the reverse transcriptase (RT) activity in the supernatants, Day 10 RT (OD) [4] of the same compound?
**A.** 0.145 OD

**Q.** And the reverse transcriptase (RT) activity in the supernatants, Day 10 RT (OD) [5]?
**A.** 0.074 OD

**Q.** Which “effect on HIV-1 infection, in words” value (HIV-1) does the source give for NCC(=O)N1CCC[C@H]1C(=O)NCC(N)=O [GPG-NH2, glycyl-prolyl-glycine amide] (H-Gly-Pro-Gly-NH2) here?
**A.** inhibited and/or prevented HIV-1 infection

**Q.** And the “effect on SIV infection, in words” value (SIV)?
**A.** inhibit or prevent HIV-2 and SIV infection

**Q.** What about the “effect on HIV-2 infection, in words” value (HIV-2) of the same compound?
**A.** inhibit or prevent HIV-2 and SIV infection

**Q.** What about the “μCi/ml, sample p24” value [6, 7] of the same compound?
**A.** 13.712 μCi/ml

**Q.** What about the “times buffer, sample p24” value [6, 8] of the same compound?
**A.** 7.5 times buffer and 7.551 times buffer

**Q.** What about the “μCi/ml, sample gp120” value (recombinant gp120; [7]) of the same compound?
**A.** 1.745 μCi/ml

**Q.** What about the “radioactive GPG-NH2 associated with gp120 over the amount in the dialysis buffer” value (recombinant gp120; in words) of the same compound?
**A.** no appreciable amount

**Q.** And the “times buffer, sample gp120” value (recombinant gp120; [8])?
**A.** 0.961 times buffer

**Q.** And the “capsid/nucleocapsid morphology of HIV-1 particles” value (HIV-1 SF-2 virus)?
**A.** discernable capsid structures that are distinct from the Ritonavir-treated particles

**Q.** And the “μCi/ml, sample BSA” value (BSA; [7])?
**A.** 1.674 μCi/ml

**Q.** And the “radioactive GPG-NH2 associated with BSA over the amount in the dialysis buffer” value (BSA; in words)?
**A.** no appreciable amount

**Q.** And the “times buffer, sample BSA” value (BSA; [8])?
**A.** 0.922 times buffer
